Test results as given in ChEMBL document CHEMBL1817550, “Synthesis and biological evaluation of some novel cyclic-imides as hypoglycaemic, anti-hyperlipidemic agents” (Eur J Med Chem, 2011).
Activity calls are given as the source filed them. The rule behind the calls is not given here.

Experiments:
Rattus norvegicus [1] = assay: Antihyperlipidemic activity in streptozotocin-induced diabetic rat model assessed as serum cholesterol level at 10 mg/kg/day, po dosed via gavage for 14 days administered 3 days after streptozotocin challenge by UV-spectrophotometry; assay type: functional
Rattus norvegicus [2] = assay: Antihyperlipidemic activity in streptozotocin-induced diabetic rat model assessed as serum triglyceride level at 10 mg/kg/day, po dosed via gavage for 14 days administered 3 days after streptozotocin challenge by UV-spectrophotometry; assay type: functional
Rattus norvegicus [3] = assay: Antihyperlipidemic activity in high-cholesterol diet-induced hypercholesterolemia Swiss albino rat model assessed as reduction in serum cholesterol level at 10 mg/kg/day, po administered via gavage simultaneously with diet cocktail for 14 days by UV-spectrophotometry relative to untreated control; assay type: functional; conditions: 336 h
Rattus norvegicus [4] = assay: Hypoglycemic activity in streptozotocin-induced diabetic rat model assessed as decrease in serum glucose level at 10 mg/kg/day, po dosed via gavage for 14 days administered 3 days after streptozotocin challenge by UV-spectrophotometry; assay type: functional
[5] = Toxicity in intra-gastrically dosed healthy rat administered as single dose; assay type: organism-based; conditions: in vivo, po
Rattus norvegicus [6] = assay: Toxicity in healthy rat assessed as incidence of less responsive state at 2000 to 7000 mg/kg, po measured after 2 to 6 hrs; assay type: organism-based; parameters: route oral; conditions: in vivo
Rattus norvegicus [7] = assay: Toxicity in healthy rat at 2000 to 7000 mg/kg, po measured after 24 hrs; assay type: organism-based; parameters: dose 2000-7000 mg/kg, route oral; conditions: in vivo
Rattus norvegicus [8] = assay: Toxicity in healthy rat assessed as incidence of mortality at 2000 to 7000 mg/kg, po measured after 24 hrs; assay type: organism-based; parameters: dose 2000-7000 mg/kg, route oral; conditions: in vivo
Rattus norvegicus [9] = assay: Antihyperlipidemic activity in high-cholesterol diet-induced hypercholesterolemia Swiss albino rat model assessed as reduction in serum cholesterol level at 160 mg/kg/day, po administered via gavage simultaneously with diet cocktail for 14 days by UV-spectrophotometry relative to untreated control; assay type: functional, organism-based

SMILES: O=C1[C@@H]2[C@H](C(=O)N1c1ncccn1)C1(Cl)C(Cl)=C(Cl)C2(Cl)C1(Cl)Cl
- Activity (Rattus norvegicus [1]): 162.3 mg/dL
- Activity (Rattus norvegicus [2]): 89.33 mg/dL
- inhibition in vivo at 10 mg/kg/day (Rattus norvegicus [3]): 44%

SMILES: O=C1[C@@H]2[C@H](C(=O)N1CCN1CCOCC1)C1(Cl)C(Cl)=C(Cl)C2(Cl)C1(Cl)Cl
- Activity (Rattus norvegicus [1]): 152.3 mg/dL
- Activity (Rattus norvegicus [2]): 91.33 mg/dL
- inhibition in vivo at 10 mg/kg/day (Rattus norvegicus [3]): 7%

SMILES: O=C1c2c(Cl)c(Cl)c(Cl)c(Cl)c2C(=O)N1c1ccccn1
- Activity (Rattus norvegicus [1]): 140.3 mg/dL
- Activity (Rattus norvegicus [2]): 120 mg/dL
- inhibition in vivo at 10 mg/kg/day (Rattus norvegicus [3]): 9%

SMILES: O=C1c2c(Cl)c(Cl)c(Cl)c(Cl)c2C(=O)N1c1ccncc1
- inhibition in vivo at 10 mg/kg/day (Rattus norvegicus [4]): 3%
- Activity (Rattus norvegicus [1]): 129.5 mg/dL
- Activity (Rattus norvegicus [2]): 110.6 mg/dL
- inhibition in vivo at 10 mg/kg/day (Rattus norvegicus [3]): 44%

SMILES: O=C1c2cc(Cl)c(Cl)cc2C(=O)N1CCN1CCOCC1
- inhibition in vivo at 10 mg/kg/day (Rattus norvegicus [4]): 30%
- Activity (Rattus norvegicus [1]): 88.66 mg/dL
- Activity (Rattus norvegicus [2]): 97.66 mg/dL
- inhibition in vivo at 10 mg/kg/day (Rattus norvegicus [3]): 42%

SMILES: O=C1c2c(Br)c(Br)c(Br)c(Br)c2C(=O)N1c1ncccn1
- inhibition in vivo at 10 mg/kg/day (Rattus norvegicus [4]): 28%
- Activity (Rattus norvegicus [1]): 196 mg/dL
- Activity (Rattus norvegicus [2]): 110.6 mg/dL
- inhibition in vivo at 10 mg/kg/day (Rattus norvegicus [3]): 19%

SMILES: O=C1c2cc(Cl)c(Cl)cc2C(=O)N1c1ncccn1
- inhibition in vivo at 10 mg/kg/day (Rattus norvegicus [4]): 32%
- Activity (Rattus norvegicus [1]): 96 mg/dL
- Activity (Rattus norvegicus [2]): 70.66 mg/dL
- inhibition in vivo at 10 mg/kg/day (Rattus norvegicus [3]): 58%
- LD50 [5]: 4240 mg/kg
- Activity (Rattus norvegicus [6]): Toxic
- Activity (Rattus norvegicus [7]): Non-toxic
- Activity (Rattus norvegicus [8]): Non-toxic
- Activity (Rattus norvegicus [9]): Active

SMILES: O=C1c2cc(Cl)c(Cl)cc2C(=O)N1c1ccccn1
- inhibition in vivo at 10 mg/kg/day (Rattus norvegicus [4]): 3%
- Activity (Rattus norvegicus [1]): 126.2 mg/dL
- Activity (Rattus norvegicus [2]): 90.5 mg/dL
- inhibition in vivo at 10 mg/kg/day (Rattus norvegicus [3]): 17%

SMILES: O=C1[C@@H]2[C@H](C(=O)N1CCc1ccccn1)C1(Cl)C(Cl)=C(Cl)C2(Cl)C1(Cl)Cl
- inhibition in vivo at 10 mg/kg/day (Rattus norvegicus [4]): 7%
- Activity (Rattus norvegicus [1]): 89.75 mg/dL
- Activity (Rattus norvegicus [2]): 71 mg/dL
- inhibition in vivo at 10 mg/kg/day (Rattus norvegicus [3]): 53%

SMILES: O=C1c2cc(Cl)c(Cl)cc2C(=O)N1CCc1ccccn1
- inhibition in vivo at 10 mg/kg/day (Rattus norvegicus [4]): 55%
- Activity (Rattus norvegicus [1]): 92.33 mg/dL
- Activity (Rattus norvegicus [2]): 71.6 mg/dL
- inhibition in vivo at 10 mg/kg/day (Rattus norvegicus [3]): 56%
- LD50 [5]: 5260 mg/kg
- Activity (Rattus norvegicus [6]): Toxic
- Activity (Rattus norvegicus [7]): Non-toxic
- Activity (Rattus norvegicus [8]): Non-toxic
- Activity (Rattus norvegicus [9]): Active

SMILES: COc1ccc(Cl)cc1C(=O)NCCc1ccc(S(=O)(=O)NC(=O)NC2CCCCC2)cc1 [GLYBURIDE]
- inhibition in vivo at 10 mg/kg/day (Rattus norvegicus [4]): 52%
- Activity (Rattus norvegicus [1]): 102.6 mg/dL
- Activity (Rattus norvegicus [2]): 87.6 mg/dL
- inhibition in vivo at 10 mg/kg/day (Rattus norvegicus [3]): 11%

SMILES: O=C1c2c(Cl)c(Cl)c(Cl)c(Cl)c2C(=O)N1CCN1CCOCC1
- inhibition in vivo at 10 mg/kg/day (Rattus norvegicus [4]): 10%
- Activity (Rattus norvegicus [1]): 105.7 mg/dL
- Activity (Rattus norvegicus [2]): 100.3 mg/dL
- inhibition in vivo at 10 mg/kg/day (Rattus norvegicus [3]): 46%

SMILES: O=C1c2c(Br)c(Br)c(Br)c(Br)c2C(=O)N1c1ccccn1
- Activity (Rattus norvegicus [1]): 150.3 mg/dL
- Activity (Rattus norvegicus [2]): 100.3 mg/dL
- inhibition in vivo at 10 mg/kg/day (Rattus norvegicus [3]): 21%

SMILES: O=C1[C@@H]2[C@H](C(=O)N1c1ccccn1)C1(Cl)C(Cl)=C(Cl)C2(Cl)C1(Cl)Cl
- inhibition in vivo at 10 mg/kg/day (Rattus norvegicus [4]): 25%
- Activity (Rattus norvegicus [1]): 129.6 mg/dL
- Activity (Rattus norvegicus [2]): 94.33 mg/dL
- inhibition in vivo at 10 mg/kg/day (Rattus norvegicus [3]): 33%

SMILES: O=C1c2cc(Cl)c(Cl)cc2C(=O)N1Cc1ccccn1
- Activity (Rattus norvegicus [1]): 155.3 mg/dL
- Activity (Rattus norvegicus [2]): 93 mg/dL
- inhibition in vivo at 10 mg/kg/day (Rattus norvegicus [3]): 11%

SMILES: O=C1c2c(Cl)c(Cl)c(Cl)c(Cl)c2C(=O)N1c1ncccn1
- inhibition in vivo at 10 mg/kg/day (Rattus norvegicus [4]): 5%
- Activity (Rattus norvegicus [1]): 117 mg/dL
- Activity (Rattus norvegicus [2]): 123 mg/dL
- inhibition in vivo at 10 mg/kg/day (Rattus norvegicus [3]): 3%

SMILES: O=C1c2c(Br)c(Br)c(Br)c(Br)c2C(=O)N1Cc1ccccn1
- inhibition in vivo at 10 mg/kg/day (Rattus norvegicus [4]): 35%
- Activity (Rattus norvegicus [1]): 92.33 mg/dL
- Activity (Rattus norvegicus [2]): 82.66 mg/dL
- inhibition in vivo at 10 mg/kg/day (Rattus norvegicus [3]): 54%
- LD50 [5]: 5010 mg/kg
- Activity (Rattus norvegicus [6]): Toxic
- Activity (Rattus norvegicus [7]): Non-toxic
- Activity (Rattus norvegicus [8]): Non-toxic
- Activity (Rattus norvegicus [9]): Active

SMILES: O=C1[C@@H]2[C@H](C(=O)N1c1ccncc1)C1(Cl)C(Cl)=C(Cl)C2(Cl)C1(Cl)Cl
- inhibition in vivo at 10 mg/kg/day (Rattus norvegicus [4]): 27%
- Activity (Rattus norvegicus [1]): 169.3 mg/dL
- Activity (Rattus norvegicus [2]): 77 mg/dL
- inhibition in vivo at 10 mg/kg/day (Rattus norvegicus [3]): 41%

SMILES: O=C1c2c(Cl)c(Cl)c(Cl)c(Cl)c2C(=O)N1CCc1ccccn1
- Activity (Rattus norvegicus [1]): 107.2 mg/dL
- Activity (Rattus norvegicus [2]): 80 mg/dL
- inhibition in vivo at 10 mg/kg/day (Rattus norvegicus [3]): 48%

SMILES: O=C1[C@@H]2[C@H](C(=O)N1Cc1ccccn1)C1(Cl)C(Cl)=C(Cl)C2(Cl)C1(Cl)Cl
- Activity (Rattus norvegicus [1]): 149.3 mg/dL
- Activity (Rattus norvegicus [2]): 123 mg/dL
- inhibition in vivo at 10 mg/kg/day (Rattus norvegicus [3]): 4%

SMILES: O=C1c2c(Br)c(Br)c(Br)c(Br)c2C(=O)N1CCc1ccccn1
- inhibition in vivo at 10 mg/kg/day (Rattus norvegicus [4]): 18%
- Activity (Rattus norvegicus [1]): 164.6 mg/dL
- Activity (Rattus norvegicus [2]): 91.33 mg/dL
- inhibition in vivo at 10 mg/kg/day (Rattus norvegicus [3]): 20%

SMILES: O=C1c2c(Br)c(Br)c(Br)c(Br)c2C(=O)N1CCN1CCOCC1
- inhibition in vivo at 10 mg/kg/day (Rattus norvegicus [4]): 20%
- Activity (Rattus norvegicus [1]): 161.3 mg/dL
- Activity (Rattus norvegicus [2]): 80 mg/dL
- inhibition in vivo at 10 mg/kg/day (Rattus norvegicus [3]): 7%

SMILES: O=C1c2c(Br)c(Br)c(Br)c(Br)c2C(=O)N1c1ccncc1
- Activity (Rattus norvegicus [1]): 171 mg/dL
- Activity (Rattus norvegicus [2]): 120 mg/dL
- inhibition in vivo at 10 mg/kg/day (Rattus norvegicus [3]): 13%

SMILES: O=C1c2c(Cl)c(Cl)c(Cl)c(Cl)c2C(=O)N1Cc1ccccn1
- inhibition in vivo at 10 mg/kg/day (Rattus norvegicus [4]): 23%
- Activity (Rattus norvegicus [1]): 105 mg/dL
- Activity (Rattus norvegicus [2]): 82.66 mg/dL
- inhibition in vivo at 10 mg/kg/day (Rattus norvegicus [3]): 47%

SMILES: O=C1c2cc(Cl)c(Cl)cc2C(=O)N1c1ccncc1
- Activity (Rattus norvegicus [1]): 146 mg/dL
- Activity (Rattus norvegicus [2]): 112 mg/dL
- inhibition in vivo at 10 mg/kg/day (Rattus norvegicus [3]): 19%
